Measurements: patent US8217058B2, “Substituted piperidino phenyloxazolidinones” (Wockhardt Ltd., priority 2006, dated 2012)
In brackets after ≈: the same amount, converted by molar mass.

Legend:
[1] = system: Streptococcus group G ATCC 12394; assay: MIC test (agar dilution); format: cell-based; settings: Mueller Hinton agar, 24 h at 35° C.
[2] = system: Streptococcus pyogenes ATCC 25147; assay: MIC test (agar dilution); format: cell-based; settings: Mueller Hinton agar, 24 h at 35° C.
[3] = system: Streptococcus group B ATCC 12386; assay: MIC test (agar dilution); format: cell-based; settings: Mueller Hinton agar, 24 h at 35° C.
[4] = system: Enterococcus faecalis ATCC 29212; assay: MIC test (agar dilution); format: cell-based; settings: Mueller Hinton agar, 24 h at 35° C.
[5] = system: Streptococcus group C ATCC 12388; assay: MIC test (agar dilution); format: cell-based; settings: Mueller Hinton agar, 24 h at 35° C.
[6] = system: Streptococcus group F ATCC 12392; assay: MIC test (agar dilution); format: cell-based; settings: Mueller Hinton agar, 24 h at 35° C.
[7] = system: Staphylococcus epidermidis STE-110 MRSE; assay: MIC test (agar dilution); format: cell-based; settings: Mueller Hinton agar, 24 h at 35° C.
[8] = system: Staphylococcus aureus Mu-50 VISA; assay: MIC test (agar dilution); format: cell-based; settings: Mueller Hinton agar, 24 h at 35° C.
[9] = system: Staphylococcus epidermidis STE-118; assay: MIC test (agar dilution); format: cell-based; settings: Mueller Hinton agar, 24 h at 35° C.
[10] = Oral pharmacokinetic study in dog, serum concentrations by HPLC; format: in vivo; design: Serum concentration: unit not given here; settings: for Serum concentration: dog, 15 mg/kg p.o
Experimental: Oral (15 mg/kg p.o) pharmacokinetic studies were done in dog. Blood samples were collected at time points of 0, 0.08 (not for oral), 0.25, 0.50, 1.0, 1.5, 2.0, 3.0, 4.0, 5.0, 6.0, 8.0, 10.0, 12.0 and 24.0 h. To facilitate IV dosing and collection of blood samples, the dogs were implanted with cannula in cephalic vein. Serum obtained from blood samples was used for HPLC-based analysis.
Serum samples were extracted by solid phase extraction technique using Water's OASIS HLB cartridges. An HPLC-Diode array detection system was used for analysis. Prepared samples were chromatographed on a YMC-AM reversed phase column (150×4.6 mm ID; 5 μm) using an isocratic mobile phase acetate buffer (50 mmol ammonium acetate pH 6.6) acetonitrile, 66:34% v/v (for a representative compound of the invention) at a flow rate of 1 ml/min, measured at λmax 254 nm. Independently prepared analytical standards and quality control samples were analyzed with each set of unknown samples.

[11] = system: Enterococcus faecalis Efe-406 VRE; assay: MIC test (agar dilution); format: cell-based; settings: Mueller Hinton agar, 24 h at 35° C.
[12] = system: Streptococcus pneumoniae ATCC 49619; assay: MIC test (agar dilution); format: cell-based; settings: Mueller Hinton agar, 24 h at 35° C.
[13] = system: Streptococcus pneumoniae ATCC 6303; assay: MIC test (agar dilution); format: cell-based; settings: Mueller Hinton agar, 24 h at 35° C.
[14] = system: Streptococcus agalactiae ATCC 13813; assay: MIC test (agar dilution); format: cell-based; settings: Mueller Hinton agar, 24 h at 35° C.
[15] = system: Staphylococcus aureus ATCC 25923; assay: MIC test (agar dilution); format: cell-based; settings: Mueller Hinton agar, 24 h at 35° C.
[16] = system: Enterococcus faecium Efa-332 VRE; assay: MIC test (agar dilution); format: cell-based; settings: Mueller Hinton agar, 24 h at 35° C.
[17] = system: Staphylococcus aureus MRSA-032; assay: MIC test (agar dilution); format: cell-based; settings: Mueller Hinton agar, 24 h at 35° C.
Experimental: The in vitro MIC methods of test compounds were determined essentially as described in WO 95/25106, U.S. Pat. No. 5,668,286 and EP 0 750 618 B1.
Overnight grown cultures of MRSA-032 organisms in Tryptic Soya broth were diluted in Mueller Hinton Broth to give optical density matching with MacFarland tube 0.5 standard. Cultures were further diluted 1:10 in Mueller Hinton broth. Using Denley's multipoint inoculator, 10^4 cells were deposited on Mueller Hinton agar (Difco) containing range of 2 fold dilutions of test compounds. […] MIC is defined as minimum drug concentration that inhibits test organisms.

[18] = system: Enterococcus faecium Efa-303; assay: MIC test (agar dilution); format: cell-based; settings: Mueller Hinton agar, 24 h at 35° C.
[19] = system: Staphylococcus aureus ATCC 29213; assay: MIC test (agar dilution); format: cell-based; settings: Mueller Hinton agar, 24 h at 35° C.
[20] = system: Staphylococcus aureus Smith; assay: MIC test (agar dilution); format: cell-based; settings: Mueller Hinton agar, 24 h at 35° C.
[21] = system: Staphylococcus aureus STA-014; assay: MIC test (agar dilution); format: cell-based; settings: Mueller Hinton agar, 24 h at 35° C.

COCC1(O)CCN(c2c(F)cc(N3C[C@H](CNC(C)=O)OC3=O)cc2F)CC1 [Example-11, (5S)—N-{3-[3,5-difluoro-4-(4-hydroxy-(4-methoxymethyl)-piperidin-1yl)phenyl]-2-oxo-oxazolidin-5-ylmethyl}-acetamide]
MIC [1]: 2 µg/mL (≈ 4.84 µM)
MIC [2]: 2 µg/mL (≈ 4.84 µM)
MIC [3]: 2 µg/mL (≈ 4.84 µM)
MIC [4]: 2 µg/mL (≈ 4.84 µM)
MIC [5]: 2 µg/mL (≈ 4.84 µM)
MIC [6]: 2 µg/mL (≈ 4.84 µM)
MIC [7]: 1 µg/mL (≈ 2.42 µM)
MIC [8]: 2 µg/mL (≈ 4.84 µM)
MIC [9]: 1 µg/mL (≈ 2.42 µM)
Serum concentrations relative to the MIC value ([10]; dog pharmacokinetic study, up to 24 h post dosing): significantly higher serum concentrations above the MIC value up to 24 h post dosing
Serum concentration ([10]; time point 0.0 hr): 0.0
Serum concentration ([10]; time point 0.25 hr): 4.14
Serum concentration ([10]; time point 0.5 hr): 5.41
Serum concentration ([10]; time point 1.0 hr): 8.76
Serum concentration ([10]; time point 2.0 hr): 11.42
Serum concentration ([10]; time point 3.0 hr): 10.97
Serum concentration ([10]; time point 4.0 hr): 10.37
Serum concentration ([10]; time point 5.0 hr): 8.81
Serum concentration ([10]; time point 6.0 hr): 7.28 ± 2.14
Serum concentration ([10]; time point 8.0 hr): 5.82 ± 1.58
Serum concentration ([10]; time point 10.0 hr): 4.50 ± 1.03
Serum concentration ([10]; time point 12.0 hr): 3.47 ± 1.25
Serum concentration ([10]; time point 24.0 hr): 2.19 ± 1.91
MIC [11]: 4 µg/mL (≈ 9.68 µM)
MIC [12]: 2 µg/mL (≈ 4.84 µM)
MIC [13]: 2 µg/mL (≈ 4.84 µM)
MIC [14]: 2 µg/mL (≈ 4.84 µM)
MIC [15]: 2 µg/mL (≈ 4.84 µM)
MIC [16]: 2 µg/mL (≈ 4.84 µM)
MIC [17]: 4 µg/mL (≈ 9.68 µM)
MIC [18]: 4 µg/mL (≈ 9.68 µM)
MIC [19]: 2 µg/mL (≈ 4.84 µM)
MIC [20]: 2 µg/mL (≈ 4.84 µM)
MIC [21]: 4 µg/mL (≈ 9.68 µM)
